According to the supplement of paper PMC10307832:

Tests used:
Test in all cases: relative viability (nuclei count vs DMSO), 5 days (fraction); higher = more cells survive
[1] = compound: C[C@]1(O)C[C@@H](c2nc(-c3ccc4ccc(-c5ccccc5)nc4c3)c3c(N)nccn32)C1 [Linsitinib] + N=C(N)NC(=N)NCCc1ccccc1 [Phenformin] (partner 250 µM)
Method in brief: (§1)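 Relative viability is defined as nuclei in treated wells over nuclei in vehicle wells. Duplicate plates were run and medians reported. Lung cancer cell lines in 1536-well plates were dosed by pin tool one day after seeding, with one drug or with a fixed anchor-drug dose plus five library-drug doses (not always all listed) in √10 steps, and nuclei were counted after 5 days.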

[2] = compound: C[C@]1(O)C[C@@H](c2nc(-c3ccc4ccc(-c5ccccc5)nc4c3)c3c(N)nccn32)C1 [Linsitinib] + NC(=O)Nc1cc(-c2cccc(F)c2)sc1C(=O)N[C@H]1CCCNC1 [AZD7762] (partner 0.2 µM)
Method in brief: as §1

[3] = compound: Cc1ccc(C(=O)N(CCCN)[C@@H](c2nc3cc(Cl)ccc3c(=O)n2Cc2ccccc2)C(C)C)cc1 [Ispinesib] + CS(=O)(=O)CCNCc1ccc(-c2ccc3ncnc(Nc4ccc(OCc5cccc(F)c5)c(Cl)c4)c3c2)o1 [Lapatinib] (partner 2 µM)
Method in brief: as §1

[4] = compound: Cc1ccc(C(=O)N(CCCN)[C@@H](c2nc3cc(Cl)ccc3c(=O)n2Cc2ccccc2)C(C)C)cc1 [Ispinesib] + Nc1nc2[nH]cc(CCc3ccc(C(=O)N[C@@H](CCC(=O)O)C(=O)O)cc3)c2c(=O)[nH]1 [Pemetrexed] (partner 0.2 µM)
Method in brief: as §1

| Cell Line | relative viability ([1]; first compound 0.01 µM) | relative viability ([1]; first compound 0.03162 µM) | relative viability ([1]; first compound 0.1 µM) | relative viability ([1]; first compound 1 µM) | relative viability ([2]; first compound 0.01 µM) | relative viability ([2]; first compound 0.03162 µM) | relative viability ([2]; first compound 0.1 µM) | relative viability ([2]; first compound 0.3162 µM) | relative viability ([2]; first compound 1 µM) | relative viability ([3]; first compound 0.001 µM) | relative viability ([3]; first compound 0.003162 µM) | relative viability ([3]; first compound 0.01 µM) | relative viability ([3]; first compound 0.03162 µM) | relative viability ([3]; first compound 0.1 µM) | relative viability ([4]; first compound 0.001 µM) | relative viability ([4]; first compound 0.003162 µM) | relative viability ([4]; first compound 0.01 µM) | relative viability ([4]; first compound 0.03162 µM) | relative viability ([4]; first compound 0.1 µM) | relative viability ([1]; first compound 0.3162 µM) |
| --- | --- | --- | --- | --- | --- | --- | --- | --- | --- | --- | --- | --- | --- | --- | --- | --- | --- | --- | --- | --- |
| LXF-289 | 0.5 | 0.448 | 0.523 | 0.471 | 1.04 | 1.04 | 1.13 | 0.731 | 1.04 | 0.872 | 0.909 | 1.01 | 0.634 | 0.118 | 0.92 | 0.937 | 0.973 | 0.769 | 0.137 |  |
| NCI-H460 | 0.511 | 0.44 | 0.521 | 0.342 | 0.566 | 0.614 | 0.698 |  | 0.398 | 1.1 | 1.23 | 1.39 | 0.335 | 0.0345 | 0.0593 | 0.0626 | 0.0626 | 0.0523 | 0.0519 | 0.394 |
| NCI-H1792 | 0.453 | 0.419 | 0.29 | 0.073 | 0.74 | 0.684 | 0.539 | 0.326 | 0.277 | 0.876 | 1.05 | 0.843 | 0.418 | 0.314 | 1.05 | 1.15 | 0.903 | 0.448 | 0.135 | 0.166 |
| EMC-BAC-2 | 0.506 | 0.487 | 0.485 | 0.388 | 1.12 | 1.07 | 1.1 | 0.775 | 0.553 | 0.936 | 0.933 | 1 | 0.724 | 0.233 | 0.455 | 0.418 | 0.405 | 0.352 | 0.327 | 0.322 |
| CAL-12T | 0.573 | 0.573 | 0.619 | 0.558 | 0.67 | 0.595 | 0.734 | 0.577 | 0.743 | 0.625 | 0.692 | 0.742 | 0.488 | 0.235 | 1.31 | 1.24 | 1.41 | 1.12 | 0.235 | 0.528 |
| ChaGo-K-1 | 0.527 | 0.515 | 0.499 | 0.457 | 0.893 | 0.91 | 0.855 |  | 0.799 |  |  |  |  |  | 0.248 | 0.274 | 0.26 | 0.256 | 0.154 | 0.332 |
| COR-L 105 | 0.554 | 0.451 | 0.49 | 0.406 |  |  |  |  |  | 0.347 | 0.311 | 0.251 | 0.247 | 0.265 | 1.09 | 1.11 | 1.24 | 0.794 | 0.5 | 0.478 |
| NCI-H1944 | 0.217 | 0.259 | 0.192 | 0.159 | 0.469 | 0.455 | 0.547 | 0.478 | 0.266 | 0.863 | 0.799 | 1.01 | 0.528 | 0.27 | 0.682 | 0.61 | 0.588 | 0.389 | 0.218 | 0.165 |
| NCI-H2009 | 0.479 | 0.47 | 0.434 | 0.367 |  |  |  |  |  | 0.954 | 0.781 | 0.558 | 0.142 | 0.305 | 1.13 | 1.06 | 1.03 | 0.936 | 0.44 |  |
